pIC50: −log10 of the molar value. Values after ≈ are worked out from the molar mass of the structure shown.
How the values were obtained:
[1] = Aqueous solubility of the compound in phosphate buffer at pH 5.5 after 24 hrs by HPLC analysis; assay type: physicochemical
[2] = system: Plasmodium falciparum; test: Antimalarial activity against asexual erythrocyte stages of chloroquine-sensitive Plasmodium falciparum D10; assay type: functional, organism-based
[3] = system: Plasmodium falciparum; test: Antimalarial activity against asexual erythrocyte stages of chloroquine-resistant Plasmodium falciparum Dd2; assay type: functional, organism-based
[4] = system: Plasmodium falciparum; test: Resistant index, ratio of IC50 for chloroquine-resistant Plasmodium falciparum Dd2 to IC50 for chloroquine-sensitive Plasmodium falciparum D10; assay type: functional
[5] = system: CHO; test: Cytotoxicity against CHO cells by MTT assay; assay type: cell-based; conditions: Cricetulus griseus
[6] = Selectivity index, ratio of IC50 for CHO cells to IC50 for chloroquine-sensitive Plasmodium falciparum D10; assay type: toxicity, cell-based; conditions: hamster, read-out: Ratio IC50
[7] = system: TK-10; test: Cytotoxicity against human TK10 cells after 48 hrs by sulforhodamine B assay; assay type: functional; conditions: for GI50 / TGI / CC50: Homo sapiens, TK-10, 48 h; for CC50: read-out: LC50 (the source's name)
[8] = system: UACC-62; test: Cytotoxicity against human UACC62 cells after 48 hrs by sulforhodamine B assay; assay type: functional; conditions: for GI50 / TGI / CC50: Homo sapiens, UACC-62, 48 h; for CC50: read-out: LC50 (the source's name)
[9] = system: MCF7; test: Cytotoxicity against human MCF7 cells after 48 hrs by sulforhodamine B assay; assay type: functional; conditions: for GI50 / TGI / CC50: Homo sapiens, MCF7, 48 h; for CC50: read-out: LC50 (the source's name)
[10] = physchem; conditions: octanol/phosphate buffered saline
Description: Octanol-phosphate buffered saline distribution coefficient, log D of the compound at 2 mg after 48 hrs by HPLC analysis

| Compound | solubility at 24 h [1] | pIC50 [2] | pIC50 [3] | Ratio IC50 [4] | pIC50 [5] | selectivity ratio [6] | LC100 [7] | GI50 [7] | TGI [7] | CC50 [7] | LC100 [8] | GI50 [8] | TGI [8] | CC50 [8] | LC100 [9] | GI50 [9] | TGI [9] | CC50 [9] | logD at 48 h [10] |
| --- | --- | --- | --- | --- | --- | --- | --- | --- | --- | --- | --- | --- | --- | --- | --- | --- | --- | --- | --- |
| CN(CCCNc1ccnc2cc(Cl)ccc12)CCCNc1ccnc2cc(Cl)ccc12 | 32.9 mM (≈ 15.4 mg/mL) | 7.43 | 7.15 | 1.9 | 5.11 | 211 | 45.12 µM | 540 nM | 1000 nM | 5610 nM | >100 µM | 360 nM | 640 nM | 920 nM | >100 µM | 390 nM | 690 nM | 1200 nM | 0.29 |
| c1ccc2c(c1)nc(NCCNCCNc1nc3ccccc3n3cccc13)c1cccn12 | 27.5 mM (≈ 12 mg/mL) | 6.26 | 5.72 | 3.4 | – | – | – | – | – | – | – | – | – | – | – | – | – | – | 0.39 |
| Clc1ccc2c(NCCNCCNCCNc3ccnc4cc(Cl)ccc34)ccnc2c1 | 38.7 mM (≈ 18.2 mg/mL) | 7.06 | 7.45 | 0.4 | 5.10 | 93 | >100 µM | 5890 nM | 5360 nM | 7710 nM | >100 µM | 2870 nM | 5300 nM | 7740 nM | >100 µM | 760 nM | 3530 nM | 7370 nM | 0.28 |
| Clc1ccc2c(NCCCNCCNCCCNc3ccnc4cc(Cl)ccc34)ccnc2c1 | 18.9 mM (≈ 9.42 mg/mL) | 6.89 | 7.31 | 0.4 | 4.89 | 102 | >100 µM | 2100 nM | 4740 nM | 7380 nM | >100 µM | 1060 nM | 4090 nM | 7110 nM | >100 µM | 380 nM | 1650 nM | 6430 nM | 0.3 |
| Cc1cccc2nccc(NCCNCCNc3ccnc4cccc(C)c34)c12 | 29.5 mM (≈ 11.4 mg/mL) | 6.13 | 6.29 | 0.7 | – | – | – | – | – | – | – | – | – | – | – | – | – | – | 0.05 |
| Cc1cccc2nccc(NCCCNCCNc3ccnc4cccc(C)c34)c12 | 28.2 mM (≈ 11.3 mg/mL) | 6.67 | 6.98 | 0.5 | – | – | – | – | – | – | – | – | – | – | – | – | – | – | 0.32 |
| Cc1cccc2nccc(NCCCNCCCNc3ccnc4cccc(C)c34)c12 | 27.9 mM (≈ 11.5 mg/mL) | 6.89 | 7.10 | 0.6 | 3.88 | 1024 | – | – | – | – | – | – | – | – | – | – | – | – | 0.14 |
| Cc1cccc2nccc(NCCCN(C)CCCNc3ccnc4cccc(C)c34)c12 | 31.2 mM (≈ 13.3 mg/mL) | 6.73 | 5.72 | 10.4 | – | – | – | – | – | – | – | – | – | – | – | – | – | – | 0.16 |
| Cc1cccc2nccc(NCCNCCNCCNc3ccnc4cccc(C)c34)c12 | 38.9 mM (≈ 16.7 mg/mL) | 5.85 | 5.96 | 0.8 | – | – | – | – | – | – | – | – | – | – | – | – | – | – | 0.4 |
| Cc1cccc2nccc(NCCCNCCNCCCNc3ccnc4cccc(C)c34)c12 | 36.5 mM (≈ 16.7 mg/mL) | 6.04 | 6.22 | 0.7 | 3.76 | 187 | – | – | – | – | – | – | – | – | – | – | – | – | 0.34 |
| c1ccc2c(c1)nc(NCCCNCCNc1nc3ccccc3n3cccc13)c1cccn12 | 28.6 mM (≈ 12.8 mg/mL) | 6.70 | 5.86 | 6.9 | 5.55 | 14 | – | – | – | – | – | – | – | – | – | – | – | – | 0.34 |
| c1ccc2c(c1)nc(NCCCNCCCNc1nc3ccccc3n3cccc13)c1cccn12 | 24.1 mM (≈ 11.2 mg/mL) | 7.12 | 6.45 | 4.7 | 5.42 | 51 | – | – | – | – | – | – | – | – | – | – | – | – | 0.32 |
| c1ccc2c(c1)nc(NCCNCCNCCNc1nc3ccccc3n3cccc13)c1cccn12 | 34 mM (≈ 16.3 mg/mL) | 5.74 | 5.38 | 2.3 | 5.09 | 4.5 | – | – | – | – | – | – | – | – | – | – | – | – | -0.02 |
| Clc1ccc2c(NCCCNCCNc3ccnc4cc(Cl)ccc34)ccnc2c1 | 23.5 mM (≈ 10.4 mg/mL) | 7.18 | 7.25 | 0.9 | 5.51 | 47 | >100 µM | 1230 nM | 4250 nM | 7270 nM | >100 µM | 2070 nM | 4890 nM | 7720 nM | >100 µM | 600 nM | 2790 nM | 7210 nM | 0.3 |
| Clc1ccc2c(NCCCNCCCNc3ccnc4cc(Cl)ccc34)ccnc2c1 | 28.9 mM (≈ 13.1 mg/mL) | – | – | – | – | – | – | – | – | – | – | – | – | – | – | – | – | – | 0.28 |
| Clc1ccc2c(NCCNCCNc3ccnc4cc(Cl)ccc34)ccnc2c1 | 32 mM (≈ 13.6 mg/mL) | – | – | – | – | – | – | – | – | – | – | – | – | – | – | – | – | – | 0.3 |
| CN(CCCNc1nc2ccccc2n2cccc12)CCCNc1nc2ccccc2n2cccc12 | 30.2 mM (≈ 14.4 mg/mL) | 6.95 | 6.14 | 6.5 | 5.37 | 39 | – | – | – | – | – | – | – | – | – | – | – | – | 0.36 |
| CC[C@H]1CN2CCc3cc(OC)c(OC)cc3[C@@H]2C[C@@H]1C[C@H]1NCCc2cc(OC)c(OC)cc21 [EMETINE] | – | – | – | – | 6.52 | – | – | – | – | – | – | – | – | – | – | – | – | – | – |

Source: ChEMBL document CHEMBL2062520, “Synthesis and in vitro antimalarial activity of a series of bisquinoline and bispyrrolo[1,2a]quinoxaline compounds” (Eur J Med Chem, 2012)
